The values that follow come from the supplement of paper PMC7695840.

For assay [1], the system named is Staphylococcus aureus MW2 (mecA+). Nature of the assay: IC50 (growth, competition assay). Particulars: cefoxitin: subinhibitory. Put shortly:
(§1)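 Signals from DsRed (540/590) and GFP (485/520) were scaled on every plate between single-strain control medians, with No Treatment then set to 0.5. The cells were a 1:1 mix of pre-induced fluorescent S. aureus MW2 strains with and without the resistance gene, grown unshaken for 20 h at 37 °C and 90% humidity in LB in 1536-well plates under a subinhibitory drug dose set each day. Each strain's IC50 was defined as the dose halving the No Treatment signal, or the maximal signal.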

For assay [2], the system named is Staphylococcus aureus MW2 delta-mecA (mecA-). Nature of the assay: IC50 (growth, competition assay). To be noted: cefoxitin: subinhibitory. A digest of the protocol:
as §1

Values joined by “and” are separate entries in the source; they are usually repeats but may differ in a detail not shown here. Equal values may be shown once. Where a name gives a salt, the structure may show the parent alone. Where only a bound is given, the exact number is not on record here.

By IC50 is commonly meant the point on the concentration scale where inhibition reaches its midpoint. Higher therefore signals lower potency.

With `NC(=O)N/N=C/c1ccc([N+](=O)[O-])o1` [ACTIN-N], the IC50 in assay [1] (fluorescent label: DsRed) was 16.2 µM; in assay [1] (fluorescent label: GFP) it was 15 µM; in assay [2] (fluorescent label: DsRed), 10.5 µM; in assay [2] (fluorescent label: GFP), less than 9.85 µM.
As for `O=C(O)c1ccc(-n2nc(-c3ccccc3O)nc2-c2ccccc2O)cc1` [Deferasirox (Exjade)], the IC50 in assay [1] (fluorescent label: DsRed) is 91.6 µM; in assay [1] (fluorescent label: GFP), 57.1 µM; in assay [2] (fluorescent label: DsRed), 22.6 µM; in assay [2] (fluorescent label: GFP), 24.3 µM.
For the molecule `CCCCc1oc2ccc(NS(C)(=O)=O)cc2c1C(=O)c1ccc(OCCCN(CCCC)CCCC)cc1` [Dronedarone HCl (Multaq)], the IC50 came to 14.3 µM in assay [1] (fluorescent label: DsRed), 14.9 µM in assay [1] (fluorescent label: GFP), 5.95 µM in assay [2] (fluorescent label: DsRed) and 3.07 µM in assay [2] (fluorescent label: GFP).
With `C=C1c2c(Cl)ccc(O)c2C(=O)C2=C(O)[C@]3(O)C(=O)C(C(N)=O)=C(O)[C@@H](N(C)C)[C@@H]3[C@@H](O)[C@H]12.O=C(O)c1cc(S(=O)(=O)O)ccc1O` [MECLAN], the IC50 in assay [1] (fluorescent label: DsRed), in assay [1] (fluorescent label: GFP), in assay [2] (fluorescent label: DsRed) and in assay [2] (fluorescent label: GFP) was less than 9.85 µM throughout.
Take `C[N+](C)(C)CC(O)CC(=O)[O-]` (racemic) [DL-Carnitine hydrochloride]: the IC50 in assay [1] (fluorescent label: DsRed) is more than 150 µM; in assay [1] (fluorescent label: GFP), more than 150 µM; in assay [2] (fluorescent label: DsRed), more than 150 µM; in assay [2] (fluorescent label: GFP) it was 139 µM.
On to `CC1CCc2c(N3CCC(O)CC3)c(F)cc3c(=O)c(C(=O)O)cn1c23` (stereo unspecified) [ACUATIM], for which the concentration for half-maximal inhibition (IC50) in assay [1] (fluorescent label: DsRed), in assay [1] (fluorescent label: GFP), in assay [2] (fluorescent label: DsRed) and in assay [2] (fluorescent label: GFP) was less than 9.85 µM throughout.
In the case of `CN1CCN(C2Cc3ccccc3Sc3ccc(Cl)cc32)CC1` (stereo unspecified) [(?)-Octoclothepin maleate], the IC50 in assay [1] (fluorescent label: DsRed) was 73.8 µM; in assay [1] (fluorescent label: GFP), 61.8 µM; in assay [2] (fluorescent label: DsRed) it was less than 9.85 µM; in assay [2] (fluorescent label: GFP), 29.3 µM.
With `CNC(=O)c1cc(Oc2ccc(NC(=O)Nc3ccc(Cl)c(C(F)(F)F)c3)cc2)ccn1` [Sorafenib], the IC50 in assay [1] (fluorescent label: DsRed), in assay [1] (fluorescent label: GFP), in assay [2] (fluorescent label: DsRed) and in assay [2] (fluorescent label: GFP) was less than 9.85 µM in each case.
Turning to `CN(C)[C@@H]1C(O)=C(C(N)=O)C(=O)[C@@]2(O)C(O)=C3C(=O)c4c(O)cccc4[C@@](C)(O)[C@H]3[C@H](O)[C@@H]12` [TERRAMYCIN], the IC50 in assay [1] (fluorescent label: DsRed), in assay [1] (fluorescent label: GFP), in assay [2] (fluorescent label: DsRed) and in assay [2] (fluorescent label: GFP) was less than 9.85 µM in each case.
Consider `CCCCCC(=O)Cc1cc(O)cc(O)c1C(=O)Oc1cc(CC(=O)CCCCC)c(C(=O)O)c(OC)c1` [ARTHONIOIC ACID], for which the half-inhibitory concentration (IC50) in assay [1] (fluorescent label: DsRed) stood at 24 µM; in assay [1] (fluorescent label: GFP) it was 56 µM; in assay [2] (fluorescent label: DsRed), 45.5 µM; in assay [2] (fluorescent label: GFP), 49.7 µM.
As for `CN[C@H]1CC[C@@H](c2ccc(Cl)c(Cl)c2)c2ccccc21` [ZOLOFT], the IC50 stood at 103 µM in assay [1] (fluorescent label: DsRed), 106 µM in assay [1] (fluorescent label: GFP), 31.1 µM in assay [2] (fluorescent label: DsRed) and 15.5 µM in assay [2] (fluorescent label: GFP).
For `O=c1[nH]c(=O)n([C@H]2C[C@H](O)[C@@H](CO)O2)cc1F` [FLOXURIDINE], the IC50 in assay [1] (fluorescent label: DsRed), in assay [1] (fluorescent label: GFP), in assay [2] (fluorescent label: DsRed) and in assay [2] (fluorescent label: GFP) was less than 9.85 µM throughout.
`CC[C@@]1([C@@H]2O[C@@H]([C@H]3O[C@@](O)(CO)[C@H](C)C[C@@H]3C)C[C@@H]2C)CC[C@H]([C@]2(C)CC[C@]3(C[C@H](O)[C@@H](C)[C@@H]([C@@H](C)[C@@H](OC)[C@H](C)C(=O)O)O3)O2)O1` [Monensin sodium salt (Coban)]: the IC50 in assay [1] (fluorescent label: DsRed) is 2.46 µM and < 9.85 µM; in assay [1] (fluorescent label: GFP), 8.62 µM and 13.9 µM; in assay [2] (fluorescent label: DsRed), 3.16 µM and < 9.85 µM; in assay [2] (fluorescent label: GFP), less than 0.498 µM.
For the molecule `O=C(O[C@@H]1Cc2c(O)cc(O)cc2O[C@@H]1c1cc(O)c(=O)c2c(O)c(O)cc([C@H]3Oc4cc(O)cc(O)c4C[C@H]3O)c2c1)c1cc(O)c(O)c(O)c1` [THEAFLAVIN MONOGALLATES], the IC50 in assay [1] (fluorescent label: DsRed) is 111 µM; in assay [1] (fluorescent label: GFP), 93.4 µM; in assay [2] (fluorescent label: DsRed), 14.8 µM; in assay [2] (fluorescent label: GFP) it was 20.5 µM.
For `Nc1ccc(/N=N/c2ccccc2)c(N)n1` [PYRIDIUM] the same measures were more than 150 µM, more than 150 µM, more than 150 µM and more than 150 µM.
Take `C[C@@H](NCCCc1cccc(C(F)(F)F)c1)c1cccc2ccccc12` [AMG-073 HCl (Cinacalcet hydrochloride)]: the IC50 in assay [1] (fluorescent label: DsRed) was 48.8 µM; in assay [1] (fluorescent label: GFP), 54.9 µM; in assay [2] (fluorescent label: DsRed), 13.4 µM; in assay [2] (fluorescent label: GFP), less than 9.85 µM.
Take `CO/N=C(\C(=O)N[C@@H]1C(=O)N2C(C(=O)O)=C(COC(C)=O)CS[C@H]12)c1csc(N)n1` [Cefotaxime sodium]: the half-inhibitory concentration (IC50) in assay [1] (fluorescent label: DsRed), in assay [1] (fluorescent label: GFP), in assay [2] (fluorescent label: DsRed) and in assay [2] (fluorescent label: GFP) was less than 9.85 µM in each case.
In the case of `CO[C@@H]1[C@@H](OC(N)=O)[C@@H](O)[C@H](Oc2ccc3c(O)c(NC(=O)c4ccc(O)c(CC=C(C)C)c4)c(=O)oc3c2C)OC1(C)C` [ALBAMYCIN], the IC50 in assay [1] (fluorescent label: DsRed), in assay [1] (fluorescent label: GFP), in assay [2] (fluorescent label: DsRed) and in assay [2] (fluorescent label: GFP) was less than 9.85 µM each time.
Turning to `CC1(C)S[C@@H]2[C@H](NC(=O)C(C(=O)O)c3ccccc3)C(=O)N2[C@H]1C(=O)O` (stereo partly specified) [CARBECIN], the IC50 is 23.7 µM in assay [1] (fluorescent label: DsRed), 36.6 µM in assay [1] (fluorescent label: GFP), less than 9.85 µM in assay [2] (fluorescent label: DsRed) and less than 9.85 µM in assay [2] (fluorescent label: GFP).
For `O=C(O)c1cccnc1Nc1cccc(C(F)(F)F)c1` [Niflumic acid], the IC50 amounted to 18.5 µM in assay [1] (fluorescent label: DsRed), 21.4 µM in assay [1] (fluorescent label: GFP), 25.8 µM in assay [2] (fluorescent label: DsRed) and 32.3 µM in assay [2] (fluorescent label: GFP).
For the molecule `Cc1c(O)c(O)cc2c1CC=C1[C@@]2(C)CC[C@@]2(C)[C@@H]3C[C@](C)(C(=O)O)CC[C@]3(C)CC[C@]12C` [DIHYDROCELASTROL], the IC50 in assay [1] (fluorescent label: DsRed), in assay [1] (fluorescent label: GFP), in assay [2] (fluorescent label: DsRed) and in assay [2] (fluorescent label: GFP) was less than 9.85 µM throughout.
Take `CCOc1ccc2ccccc2c1C(=O)N[C@@H]1C(=O)N2[C@@H]1SC(C)(C)[C@@H]2C(=O)O` [Nafcillin Sodium]: the IC50 in assay [1] (fluorescent label: DsRed), in assay [1] (fluorescent label: GFP), in assay [2] (fluorescent label: DsRed) and in assay [2] (fluorescent label: GFP) was less than 9.85 µM throughout.
Turning to `C[C@H]1COc2c(C3(N)CC3)c(F)cc3c(=O)c(C(=O)O)cn1c23` [PAZUCROSS], the IC50 in assay [1] (fluorescent label: DsRed), in assay [1] (fluorescent label: GFP), in assay [2] (fluorescent label: DsRed) and in assay [2] (fluorescent label: GFP) was less than 9.85 µM in each case.
Consider `Cc1cc(-n2c(=O)[nH]c(=O)n(C)c2=O)ccc1Oc1ccc(SC(F)(F)F)cc1` [Toltrazuril], for which the IC50 was found to be 34.6 µM in assay [1] (fluorescent label: DsRed), 71.9 µM in assay [1] (fluorescent label: GFP), 24.3 µM in assay [2] (fluorescent label: DsRed) and 27.3 µM in assay [2] (fluorescent label: GFP).
Turning to `CCc1cc(-c2n[nH]c(C)c2-c2ccc3c(c2)OCCO3)c(O)cc1O`, the IC50 was 82.7 µM in assay [1] (fluorescent label: DsRed), 102 µM in assay [1] (fluorescent label: GFP), 15.4 µM in assay [2] (fluorescent label: DsRed) and less than 9.85 µM in assay [2] (fluorescent label: GFP).
As for `O=C(Nc1ccc([N+](=O)[O-])cc1Cl)c1cc(Cl)ccc1O` [Niclosamide], the IC50 is 113 µM in assay [1] (fluorescent label: DsRed), less than 9.85 µM in assay [1] (fluorescent label: GFP), less than 9.85 µM in assay [2] (fluorescent label: DsRed) and 73.8 µM in assay [2] (fluorescent label: GFP).
`c1ccc2c(Cc3c[nH]c4ccccc34)c[nH]c2c1` [3,3'-DIINDOLYLMETHANE]: the IC50 worked out at 67.4 µM in assay [1] (fluorescent label: DsRed), 105 µM in assay [1] (fluorescent label: GFP), 21.7 µM in assay [2] (fluorescent label: DsRed) and 21.4 µM in assay [2] (fluorescent label: GFP).
On to `CCCCC(CC)CN=C(N)N=C(N)NCCCCCCNC(N)=NC(N)=NCC(CC)CCCC` (stereo unspecified) [ALEXIDINE HYDROCHLORIDE], for which the half-maximal inhibitory concentration (IC50) in assay [1] (fluorescent label: DsRed), in assay [1] (fluorescent label: GFP), in assay [2] (fluorescent label: DsRed) and in assay [2] (fluorescent label: GFP) was less than 9.85 µM each time.
As to `CC(=O)Oc1ccc(Cl)c2cccnc12` [SILITAL], the IC50 is 17.2 µM in assay [1] (fluorescent label: DsRed), 29.8 µM in assay [1] (fluorescent label: GFP), 15.6 µM in assay [2] (fluorescent label: DsRed) and less than 9.85 µM in assay [2] (fluorescent label: GFP).
